# Reference: the supplement of paper PMC11451515
# Columns and labels:
# Details in all cases: 48 h
# NOMO1 [1] = experiment: AUC of viability dose-response curve (% viability x log10 dose units); higher = less sensitive
# How it was run: (§1)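 Leukemia cells adapted to each medium were seeded in 1536-well plates (500 or 1000 cells/well). They were dosed with library compounds in DMSO at 11 threefold doses, 47 μM to 0.79 nM, for 48 h at 37°C. CellTiter-Glo One luminescence was normalised per plate to DMSO and cell-free wells. Area under the curve was integrated by trapezoidal rule over log10 doses on a four-parameter log-logistic fit; curves exceeding full viability were scaled and curves failing quality control removed.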
# SEM cells [2] = experiment: as above
# How it was run: as §1
# P12-Ichikawa [3] = experiment: as above
# How it was run: as §1
# NOMO1 [4] = experiment: cell viability relative to DMSO control; higher = less cytotoxic
# How it was run: (§2)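 NOMO1 or SEM (500 cells/well) or P12-Ichikawa (1000 cells/well) leukemia cells were adapted for at least four passages in each medium. They were seeded in 1536-well plates (5 μl) and pin-dosed with library compounds in DMSO over an 11-point threefold series, 47 μM to 0.79 nM. CellTiter-Glo One luminescence was read after 48 h at 37°C. Viability is the per-plate percentage relative to DMSO wells, with cell-free wells as background.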
# SEM cells [5] = experiment: as above
# How it was run: as §2
# P12-Ichikawa [6] = experiment: as above
# How it was run: as §2
# [7] = RPMI 5 mM glucose + 10% dialyzed FBS
# [8] = HPLM + 10% dialyzed FBS, 0.000781 µM
# [9] = HPLM + 10% dialyzed FBS, 0.00234 µM
# [10] = HPLM + 10% dialyzed FBS, 0.00702 µM
# [11] = HPLM + 10% dialyzed FBS, 0.0211 µM
# [12] = HPLM + 10% dialyzed FBS, 0.0632 µM
# [13] = HPLM + 10% dialyzed FBS, 0.19 µM
# [14] = HPLM + 10% dialyzed FBS, 0.569 µM
# [15] = HPLM + 10% dialyzed FBS, 1.71 µM
# [16] = HPLM + 10% dialyzed FBS, 5.12 µM
# [17] = HPLM + 10% dialyzed FBS, 15.4 µM
# [18] = HPLM + 10% dialyzed FBS, 46.1 µM
# [19] = RPMI 5 mM glucose + 10% FBS, 0.000781 µM
# [20] = RPMI 5 mM glucose + 10% FBS, 0.00234 µM
# [21] = RPMI 5 mM glucose + 10% FBS, 0.00702 µM
# [22] = RPMI 5 mM glucose + 10% FBS, 0.0211 µM
# [23] = RPMI 5 mM glucose + 10% FBS, 0.0632 µM
# [24] = RPMI 5 mM glucose + 10% FBS, 0.19 µM
# [25] = RPMI 5 mM glucose + 10% FBS, 0.569 µM
# [26] = RPMI 5 mM glucose + 10% FBS, 1.71 µM
# [27] = RPMI 5 mM glucose + 10% FBS, 5.12 µM
# [28] = RPMI 5 mM glucose + 10% FBS, 15.4 µM
# [29] = RPMI 5 mM glucose + 10% FBS, 46.1 µM
# [30] = RPMI 5 mM glucose + 10% dialyzed FBS, 0.000781 µM
# [31] = RPMI 5 mM glucose + 10% dialyzed FBS, 0.00234 µM
# [32] = RPMI 5 mM glucose + 10% dialyzed FBS, 0.00702 µM
# [33] = RPMI 5 mM glucose + 10% dialyzed FBS, 0.0211 µM
# [34] = RPMI 5 mM glucose + 10% dialyzed FBS, 0.0632 µM
# [35] = RPMI 5 mM glucose + 10% dialyzed FBS, 0.19 µM
# [36] = RPMI 5 mM glucose + 10% dialyzed FBS, 0.569 µM
# [37] = RPMI 5 mM glucose + 10% dialyzed FBS, 1.71 µM
# [38] = RPMI 5 mM glucose + 10% dialyzed FBS, 5.12 µM
# [39] = RPMI 5 mM glucose + 10% dialyzed FBS, 15.4 µM
# [40] = RPMI 5 mM glucose + 10% dialyzed FBS, 46.1 µM
smiles,measurement,setting,value
C[C@@H]1COCCN1C\2=C\C(=O)N\3CC[C@H](N(CC4=CN=CC(=C4)Cl)C3=N2)C(F)(F)F,AUC of viability dose-response curve,NOMO1 [1]; HPLM + 10% dialyzed FBS,430
same,AUC of viability dose-response curve,NOMO1 [1]; RPMI 5 mM glucose + 10% FBS,418
same,AUC of viability dose-response curve,NOMO1 [1]; [7],400
same,AUC of viability dose-response curve,SEM cells [2]; HPLM + 10% dialyzed FBS,391
same,AUC of viability dose-response curve,SEM cells [2]; RPMI 5 mM glucose + 10% FBS,404
same,AUC of viability dose-response curve,SEM cells [2]; [7],397
same,AUC of viability dose-response curve,P12-Ichikawa [3]; HPLM + 10% dialyzed FBS,417
same,AUC of viability dose-response curve,P12-Ichikawa [3]; RPMI 5 mM glucose + 10% FBS,409
same,AUC of viability dose-response curve,P12-Ichikawa [3]; [7],415
same,cell viability,NOMO1 [4]; [8],90.9%
same,cell viability,NOMO1 [4]; [9],95.9%
same,cell viability,NOMO1 [4]; [10],102%
same,cell viability,NOMO1 [4]; [11],105%
same,cell viability,NOMO1 [4]; [12],124%
same,cell viability,NOMO1 [4]; [13],130%
same,cell viability,NOMO1 [4]; [14],112%
same,cell viability,NOMO1 [4]; [15],100%
same,cell viability,NOMO1 [4]; [16],103%
same,cell viability,NOMO1 [4]; [17],45.4%
same,cell viability,NOMO1 [4]; [18],29.4%
same,cell viability,NOMO1 [4]; [19],98%
same,cell viability,NOMO1 [4]; [20],87.7%
same,cell viability,NOMO1 [4]; [21],95.1%
same,cell viability,NOMO1 [4]; [22],93.8%
same,cell viability,NOMO1 [4]; [23],95.4%
same,cell viability,NOMO1 [4]; [24],98.5%
same,cell viability,NOMO1 [4]; [25],92.7%
same,cell viability,NOMO1 [4]; [26],94.2%
same,cell viability,NOMO1 [4]; [27],96.9%
same,cell viability,NOMO1 [4]; [28],57.4%
same,cell viability,NOMO1 [4]; [29],26%
same,cell viability,NOMO1 [4]; [30],87.7%
same,cell viability,NOMO1 [4]; [31],89.9%
same,cell viability,NOMO1 [4]; [32],91.1%
same,cell viability,NOMO1 [4]; [33],98.4%
same,cell viability,NOMO1 [4]; [34],108%
same,cell viability,NOMO1 [4]; [35],113%
same,cell viability,NOMO1 [4]; [36],95.1%
same,cell viability,NOMO1 [4]; [37],89.5%
same,cell viability,NOMO1 [4]; [38],67.7%
same,cell viability,NOMO1 [4]; [39],37%
same,cell viability,NOMO1 [4]; [40],22%
same,cell viability,SEM cells [5]; [8],88%
same,cell viability,SEM cells [5]; [9],83.8%
same,cell viability,SEM cells [5]; [10],91.6%
same,cell viability,SEM cells [5]; [11],97.5%
same,cell viability,SEM cells [5]; [12],85.9%
same,cell viability,SEM cells [5]; [13],97.8%
same,cell viability,SEM cells [5]; [14],91.5%
same,cell viability,SEM cells [5]; [15],94%
same,cell viability,SEM cells [5]; [16],78.8%
same,cell viability,SEM cells [5]; [17],43.2%
same,cell viability,SEM cells [5]; [18],24.8%
same,cell viability,SEM cells [5]; [19],109%
same,cell viability,SEM cells [5]; [20],109%
same,cell viability,SEM cells [5]; [21],120%
same,cell viability,SEM cells [5]; [22],96.4%
same,cell viability,SEM cells [5]; [23],115%
same,cell viability,SEM cells [5]; [24],117%
same,cell viability,SEM cells [5]; [25],122%
same,cell viability,SEM cells [5]; [26],88.5%
same,cell viability,SEM cells [5]; [27],74.4%
same,cell viability,SEM cells [5]; [28],43.4%
same,cell viability,SEM cells [5]; [29],25.1%
same,cell viability,SEM cells [5]; [30],89.6%
same,cell viability,SEM cells [5]; [31],92.3%
same,cell viability,SEM cells [5]; [32],96.9%
same,cell viability,SEM cells [5]; [33],90.9%
same,cell viability,SEM cells [5]; [34],83.4%
same,cell viability,SEM cells [5]; [35],98.7%
same,cell viability,SEM cells [5]; [36],107%
same,cell viability,SEM cells [5]; [37],89.2%
same,cell viability,SEM cells [5]; [38],71.2%
same,cell viability,SEM cells [5]; [39],42.4%
same,cell viability,SEM cells [5]; [40],34.1%
same,cell viability,P12-Ichikawa [6]; [8],94%
same,cell viability,P12-Ichikawa [6]; [9],101%
same,cell viability,P12-Ichikawa [6]; [10],98.9%
same,cell viability,P12-Ichikawa [6]; [11],94.3%
same,cell viability,P12-Ichikawa [6]; [12],97.5%
same,cell viability,P12-Ichikawa [6]; [13],103%
same,cell viability,P12-Ichikawa [6]; [14],101%
same,cell viability,P12-Ichikawa [6]; [15],104%
same,cell viability,P12-Ichikawa [6]; [16],85%
same,cell viability,P12-Ichikawa [6]; [17],32.7%
same,cell viability,P12-Ichikawa [6]; [18],22.5%
same,cell viability,P12-Ichikawa [6]; [19],91.4%
same,cell viability,P12-Ichikawa [6]; [20],94.1%
same,cell viability,P12-Ichikawa [6]; [21],95.7%
same,cell viability,P12-Ichikawa [6]; [22],89.2%
same,cell viability,P12-Ichikawa [6]; [23],98.3%
same,cell viability,P12-Ichikawa [6]; [24],107%
same,cell viability,P12-Ichikawa [6]; [25],97.2%
same,cell viability,P12-Ichikawa [6]; [26],108%
same,cell viability,P12-Ichikawa [6]; [27],76.5%
same,cell viability,P12-Ichikawa [6]; [28],40%
same,cell viability,P12-Ichikawa [6]; [29],17.5%
same,cell viability,P12-Ichikawa [6]; [30],99.4%
same,cell viability,P12-Ichikawa [6]; [31],102%
same,cell viability,P12-Ichikawa [6]; [32],106%
same,cell viability,P12-Ichikawa [6]; [33],98.8%
same,cell viability,P12-Ichikawa [6]; [34],107%
same,cell viability,P12-Ichikawa [6]; [35],99.6%
same,cell viability,P12-Ichikawa [6]; [36],114%
same,cell viability,P12-Ichikawa [6]; [37],99.8%
same,cell viability,P12-Ichikawa [6]; [38],86%
same,cell viability,P12-Ichikawa [6]; [39],30.8%
same,cell viability,P12-Ichikawa [6]; [40],17.6%
